Experimental data: patent US20240279237A1, “FUSED BICYCLIC HETEROARYL COMPOUNDS USEFUL AS NLRP3 INHIBITORS” (Hoffmann-La Roche Inc., priority 2021, published 2024)

molecular target: T1, NLRP3 (Homo sapiens, UniProt Q96P20); experiment: THP-1 Cells Pyroptosis Assay; assay type: cell-based; conditions: THP-1 cells with 1.0 μg/ml LPS; compound 3 hours; nigericin 5 μM 1 hr; resazurin readout
T1 construct: Seed THP-1 cells (25,000 cells/well) containing 1.0 μg/ml LPS in 40 μl of RPMI medium; host or cells: THP-1 cells
Experimental: The cells were routinely passaged and grown to confluency (˜10^6 cells/ml). On the day of the experiment, THP-1 cells were harvested and resuspended into RPMI medium (without FBS). The cells were then counted and viability (>90%) checked by Trypan blue (Sigma #T8154). […] To this diluted cell solution was added LPS (Sigma #L4524) to give a 1 μg/ml Final Assay Concentration (FAC). 40 μl of the final preparation was aliquoted into each well of a 96-well plate. The plate thus prepared was used for compound screening.
The following method step-by-step assay was followed for compound screening. • 1. […] Incubate for 3 hours at 37° C., 5% CO2 • 4. Add 5 μl nigericin (Sigma #N7143) (FAC 5 μM) to all wells • 5. Incubate for 1 hr at 37° C., 5% CO2 • 6. At the end of the incubation period, spin plates at 300×g for 3 mins and remove supernatant • 7. Then add 50 μl of resazurin (Sigma #R7017) (FAC 100 μM resazurin in RPMI medium without FBS) and incubate plates for a further 1-2 hours at 37° C. and 5% CO2 • 8.

T1 sequence (Q96P20 whole entry): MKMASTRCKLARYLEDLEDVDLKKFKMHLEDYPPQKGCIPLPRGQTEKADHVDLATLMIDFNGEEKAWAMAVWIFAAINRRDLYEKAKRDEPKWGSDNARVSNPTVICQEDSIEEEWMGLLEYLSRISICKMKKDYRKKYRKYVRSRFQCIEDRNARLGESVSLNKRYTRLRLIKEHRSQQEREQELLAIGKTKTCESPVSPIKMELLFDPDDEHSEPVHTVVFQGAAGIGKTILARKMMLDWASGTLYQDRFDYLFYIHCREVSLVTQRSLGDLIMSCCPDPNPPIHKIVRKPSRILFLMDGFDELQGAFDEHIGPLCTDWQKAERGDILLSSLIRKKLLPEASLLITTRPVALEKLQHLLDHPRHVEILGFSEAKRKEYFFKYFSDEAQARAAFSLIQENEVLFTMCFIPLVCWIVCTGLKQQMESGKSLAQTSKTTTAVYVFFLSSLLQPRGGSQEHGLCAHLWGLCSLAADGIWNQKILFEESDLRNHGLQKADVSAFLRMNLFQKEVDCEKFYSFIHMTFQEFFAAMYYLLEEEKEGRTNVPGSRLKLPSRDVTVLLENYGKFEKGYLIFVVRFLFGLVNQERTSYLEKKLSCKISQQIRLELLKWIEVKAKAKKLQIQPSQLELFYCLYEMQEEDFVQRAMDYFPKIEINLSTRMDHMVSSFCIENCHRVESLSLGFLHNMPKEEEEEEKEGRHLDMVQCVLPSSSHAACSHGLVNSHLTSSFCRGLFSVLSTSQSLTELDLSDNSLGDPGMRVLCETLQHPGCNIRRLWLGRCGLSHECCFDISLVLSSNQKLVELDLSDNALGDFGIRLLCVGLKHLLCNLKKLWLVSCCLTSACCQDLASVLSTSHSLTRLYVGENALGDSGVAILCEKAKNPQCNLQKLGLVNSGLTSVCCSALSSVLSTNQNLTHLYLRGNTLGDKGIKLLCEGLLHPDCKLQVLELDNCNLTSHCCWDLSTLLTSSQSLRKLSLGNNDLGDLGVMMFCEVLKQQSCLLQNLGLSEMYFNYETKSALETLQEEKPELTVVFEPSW

| Compound | IC50 [nM] |
| --- | --- |
| Cc1cc(Cl)cc(O)c1-c1ccc2oc(NC3CCC(CO)N(C)C3)nc2n1 (stereo not drawn) [Example 87, 5-Chloro-2-[2-[[6-(hydroxymethyl)-1-methyl-3-piperidyl]amino]oxazolo[4,5-b]pyridin-5-yl]-3-methyl-phenol;2,2,2-trifluoroacetic acid] | 75.6 |
| Cc1cc(Cl)cc(O)c1-c1ccc2oc(NCc3c[nH]cn3)nc2n1 [Example 67, 5-Chloro-2-[2-(1H-imidazol-5-ylmethylamino)oxazolo[4,5-b]pyridin-5-yl]-3-methyl-phenol; formic acid] | 290 |
| Cc1cc(Cl)cc(O)c1-c1ccc2oc([C@H]3CCC(=O)NC3)nc2n1 (single isomer, unassigned) [Example 73A, (5S)-5-[5-(4-Chloro-2-hydroxy-6-methyl-phenyl)oxazolo[4,5-b]pyridin-2-yl]piperidin-2-one or (5R)-5-[5-(4-Chloro-2-hydroxy-6-methyl-phenyl)oxazolo[4,5-b]pyridin-2-yl]piperidin-2-one] | 18.7 |
| CCN1CCC[C@@H](Nc2nc3nc(-c4c(C)cc(F)cc4O)ccc3o2)C1 [Example 45, 2-[2-[[(3R)-1-Ethyl-3-piperidyl]amino]oxazolo[4,5-b]pyridin-5-yl]-5-fluoro-3-methyl-phenol] | 0.9 |
| Cc1cc(C(F)(F)F)cc(O)c1-c1ccc2oc(N3CCOCC3CN(C)C)nc2n1 (racemic) [Example 2, (rac)-2-[2-[3-[(Dimethylamino)methyl]morpholin-4-yl]oxazolo[4,5-b]pyridin-5-yl]-3-methyl-5-(trifluoromethyl)phenol] | 17.4 |
| 3-Methyl-2-[2-[[(2R)-1-methylazetidin-2-yl]methylamino]oxazolo[4,5-b]pyridin-5-yl]-5-(trifluoromethyl)phenol or 3-methyl-2-[2-[[(2S)-1-methylazetidin-2-yl]methylamino]oxazolo[4,5-b]pyridin-5-yl]-5-(trifluoromethyl)phenol [Example 66A] | 398 |
| Cc1cc(C(F)(F)F)cc(O)c1-c1ccc2oc(N3CC4COCC4C3)nc2n1 (stereo not drawn) [Example 62, 2-[2-(1,3,3a,4,6,6a-Hexahydrofuro[3,4-c]pyrrol-5-yl)oxazolo[4,5-b]pyridin-5-yl]-3-methyl-5-(trifluoromethyl)phenol] | 84.8 |
| Cc1cc(C#N)cc(O)c1-c1ccc2oc(N3CCC4CCN(C)CC43)nc2n1 (single isomer, unassigned) [Example 27B, 4-[2-[(3aR,7aS or 3aS,7aR)-6-methyl-3,3a,4,5,7,7a-hexahydro-2H-pyrrolo[2,3-c]pyridin-1-yl]oxazolo[4,5-b]pyridin-5-yl]-3-hydroxy-5-methyl-benzonitrile] | 2.7 |
| CCN1CCC[C@@H](Nc2nc3nc(-c4ccc(C(F)(F)F)cc4O)c(F)cc3[nH]2)C1 [Example 133, 2-[2-[[(3R)-1-Ethyl-3-piperidyl]amino]-6-fluoro-1H-imidazo[4,5-b]pyridin-5-yl]-5-(trifluoromethyl)phenol] | 80.3 |
| Cc1cc(C#N)cc(O)c1-c1ccc2oc(N3CCCC4CCN(C)CC43)nc2n1 (stereo not drawn) [Example 81, 3-Hydroxy-5-methyl-4-[2-(7-methyl-2,3,4,4a,5,6,8,8a-octahydro-1,7-naphthyridin-1-yl)oxazolo[4,5-b]pyridin-5-yl]benzonitrile] | 72.3 |
| Cc1cc(Cl)cc(O)c1-c1ccc2oc(N[C@@H]3CCCN(C4CCC4)C3)nc2n1 [Example 47, 5-Chloro-2-[2-[[(3R)-1-cyclobutyl-3-piperidyl]amino]oxazolo[4,5-b]pyridin-5-yl]-3-methyl-phenol] | 1.2 |
| Cc1cc(Cl)cc(O)c1-c1cc(N2CCCC2=O)c2oc(N[C@@H]3CCCN(C)C3)nc2n1 (racemic) [Example 60, 1-[5-(4-Chloro-2-hydroxy-6-methyl-phenyl)-2-[[rac-(3R)-1-methyl-3-piperidyl]amino]oxazolo[4,5-b]pyridin-7-yl]pyrrolidin-2-one] | 17.9 |
| Cc1cc(C#N)cc(O)c1-c1ccc2oc(N[C@@H]3CCCN(C)C3)nc2n1 [Example 26, 3-Hydroxy-5-methyl-4-[2-[[(3R)-1-methyl-3-piperidyl]amino]oxazolo[4,5-b]pyridin-5-yl]benzonitrile] | 2.8 |
| Cc1cc(C(F)(F)F)cc(O)c1-c1ccc2oc(N3CCCC(O)C3)nc2n1 (racemic) [Example 3, (rac)-1-[5-[2-Hydroxy-6-methyl-4-(trifluoromethyl)phenyl]oxazolo[4,5-b]pyridin-2-yl]piperidin-3-ol] | 75.4 |
| CCN1CC(CNc2nc3nc(-c4c(C)cc(Cl)cc4O)ccc3o2)C1 [Example 59, 5-Chloro-2-[2-[(1-ethylazetidin-3-yl)methylamino]oxazolo[4,5-b]pyridin-5-yl]-3-methyl-phenol] | 30.1 |
| CCN1CCC[C@@H](Nc2nc3nc(-c4c(C)cc(Cl)cc4O)cnc3o2)C1 [Example 113, 5-Chloro-2-[2-[[(3R)-1-ethyl-3-piperidyl]amino]oxazolo[4,5-b]pyrazin-5-yl]-3-methyl-phenol;2,2,2-trifluoroacetic acid] | 0.5 |
| Cc1cc(C(F)(F)F)cc(O)c1-c1ccc2oc(NC34CCC(CC3)N(C)C4)nc2n1 [Example 120, 3-Methyl-2-[2-[(2-methyl-2-azabicyclo[2.2.2]octan-4-yl)amino]oxazolo[4,5-b]pyridin-5-yl]-5-(trifluoromethyl)phenol] | 108 |
| Cc1cc(C(F)(F)F)cc(O)c1-c1cc(C(C)O)c2oc(N[C@@H]3CCCN(C)C3)nc2n1 (stereo partly drawn) [Example 106, 2-[7-(1-Hydroxyethyl)-2-[[(3R)-1-methyl-3-piperidyl]amino]oxazolo[4,5-b]pyridin-5-yl]-3-methyl-5-(trifluoromethyl)phenol] | 22 |
| Cc1cc(C#N)cc(O)c1-c1ccc2oc(N[C@@H]3CCCN(CCO)C3)nc2n1 [Example 85, 3-Hydroxy-4-[2-[[(3R)-1-(2-hydroxyethyl)-3-piperidyl]amino]oxazolo[4,5-b]pyridin-5-yl]-5-methyl-benzonitrile] | 15.4 |
| CCN1CCC[C@@H](Nc2nc3nc(-c4c(O)cc(C(F)(F)F)cc4F)ccc3o2)C1 [Example 53, 2-[2-[[(3R)-1-Ethyl-3-piperidyl]amino]oxazolo[4,5-b]pyridin-5-yl]-3-fluoro-5-(trifluoromethyl)phenol] | 2.6 |
| Cc1cc(C(F)(F)F)cc(O)c1-c1ccc2oc(NCC3CCN3C)nc2n1 (stereo not drawn) [Example 66, 3-Methyl-2-[2-[(1-methylazetidin-2-yl)methylamino]oxazolo[4,5-b]pyridin-5-yl]-5-(trifluoromethyl)phenol] | 149 |
| COC(=O)CCCN1CCC[C@@H](Nc2nc3nc(-c4c(C)cc(Cl)cc4O)ccc3o2)C1 [Example 84, Methyl 4-[(3R)-3-[[5-(4-chloro-2-hydroxy-6-methyl-phenyl)oxazolo[4,5-b]pyridin-2-yl]amino]-1-piperidyl]butanoate] | 0.8 |
| Cc1cc(C#N)cc(O)c1-c1ccc2oc(NC3CCCN4CCCC34)nc2n1 (racemic) [Example 29, (rac)-4-[2-(1,2,3,5,6,7,8,8a-Octahydroindolizin-8-ylamino)oxazolo[4,5-b]pyridin-5-yl]-3-hydroxy-5-methyl-benzonitrile] | 5.1 |
| Cc1cc(C(F)(F)F)cc(O)c1-c1ccc2oc(NC3CCCC(O)C3)nc2n1 (stereo not drawn) [Example 13, 2-[2-[(3-Hydroxycyclohexyl)amino]oxazolo[4,5-b]pyridin-5-yl]-3-methyl-5-(trifluoromethyl)phenol] | 442 |
